We go through six molecules from patent US20230193262A1, “Nucleic acid molecules capable of modulating target gene expression and uses thereof” (KOREA ADVANCED INSTITUTE OF SCIENCE AND TECHNOLOGY, priority 2021, published 2023).

{Cy5.5} = Cy5.5 fluorophore label

Type in all cases: cell-based
The test system of series [1] is breast cancer cell line MDA-MB-231. Put plainly: Cell viability / apoptosis in MDA-MB-231. On the procedure: (§1) The miRNA triggers were assayed for cytotoxicity and apoptosis induction, using the CCK-8 (Cell Counting Kit-8) (Dojindo, Kumamoto, Japan) according to the manufacturer's instruction. Cells were incubated in 96-well plates (5×10^3 cells/well) at 37° C. for 24 hours under a 5% CO2 atmosphere, followed by transfection. Three days after transfection, the medium was removed. A 10-fold dilution of CCK-8 solution in DMEM was added to the cells which were then incubated at 37° C. for 2 hours. After incubation, absorbance was read at 450 nm on Tecan Infinite M200 pro microplate reader (Mnnedorf, Switzerland).
The seven linear miRNA triggers prepared above and the positive control siRNA(siBcl-xL) capable of binding to bcL-xL were transfected into the breast cancer cell line MDA-MB-231 in which miR-222 is overexpressed. Cell viability was measured and is depicted in FIG. 32a.
Linear miRNA triggers that could bind to miR-222 and target bcl-xL and mcl-1, respectively, were prepared and transfected alone or in combination into the breast cancer cell line MDA-MB-231. Cell viability was measured and the measurements are depicted in FIG. 34. siRNAs against Mcl-1 and Bcl-xL were used as controls. […]
The hairpin miRNA triggers prepared above were transfected into MDA-MB-231 and MDA-MB-453 cells which were then measured for cell viability. […]

Series [2] deals with breast cancer cell line MDA-MB-453. Description: Cell viability / apoptosis in MDA-MB-453. The note with it: for apoptosis: MDA-MB-453; for cell viability: MDA-MB-453 (does not express miR-222). On the procedure: as §1
(§2) The selected linear miRNA triggers (bcl-xL(1)_22_2222 and bcl-xL(2)_222_222) were transfected into the breast cancer cell line MDA-MB-453 to which miR-222 is not endogenous. Cell viability, and the mRNA and protein expression levels of the target gene (bcl-xL) were measured and the results are depicted in FIGS. 33a to 33c.
The hairpin miRNA triggers prepared above were transfected into MDA-MB-231 and MDA-MB-453 cells which were then measured for cell viability. The results are depicted in FIG. 37.
The MCL-1-222-222 miRNA trigger, which utilizes miR-222 to regulate MCL-1 gene, and the BCL-xL-let7f-let7f miRNA trigger, which utilizes miR-let7f to regulate BCL-xL gene, were administered to MDA-MB-231 and MDA-MB-453.
Next, apoptosis was examined when the two types of miRNA triggers were co-administered to cells. The total concentration of the two triggers was 120 nM, which was the same as for individual miRNAs. The results are depicted in FIG. 47.

In series [3] the test system is Hela-141 cells. Put plainly: Cell viability / apoptosis (CCK-8) in Hela-141 cells. Conditions: Hela-141 cells (express miR-141). On the procedure:
as §1
(§3) The linear miRNA triggers or siRNAs (siLuc and siMcl-1) prepared above were transfected into Hela, Hela-141, and Hela-200c cells which were then measured for cell viability. The results are depicted in FIG. 15.
The hairpin miRNA triggers prepared above were transfected into Hela and Hela-141 cells which were then assayed for apoptosis. As a control, the siRNA (siMcl-1; Table 14) which can repress the expression of mcl-1 was transfected to Hela and Hela-141 cells and measured for apoptotic activity.

In series [4] the test system is Hela-200c cells. Put plainly: Cell viability / apoptosis (CCK-8) in Hela-200c cells. On the procedure: as §1, §3
The test system of series [5] is Mcl-1. Description: Western blot of Mcl-1 protein in Hela-141 cells. The note with it: 5 to 120 nM, compared to the control Luc-141-141. On the procedure:
(§4) miRNA triggers were transfected into cells in the same manner as in Reference Example 4. After 72 hours, the cells were collected using a cell scraper and lysed with a RIPA buffer (NaCl 150 mM, EDTA 5 mM, Tris 50 mM, NP-40 1.0%, sodium deoxycholate 0.5%, SDS 0.1%). The cell lysate was sonicated 15 times, each for 20 sec, with a halt for 30 sec every sonication. Following centrifugation at 5,000 g for 5 min, the supernatant was taken and used to extract proteins therefrom. A total of 30-40 μg of protein sample was separated in 10-15% SDS-PAGE gel and transferred onto a PVDF membrane through a semi-dry blotting system. The membrane was blocked for 1 hour in 5% skimmed milk and incubated for 2 hours with a 1,000-fold dilution of a primary antibody in, 1% skimmed milk. […] The membrane incubated with the secondary antibody was washed three times with 1×PBST for 10 min each wash, and then reacted with Clarity Western ECL Substrate (#1705061, Bio-Rad), after which images were obtained and analyzed using ChemiDoc (Bio-rad, Hercules, USA).
A linear miRNA trigger (Mcl-1-141-141; Table 15) that could bind to miR-141 and target mcl-1 was prepared while a linear miRNA trigger (Luc-141-141; Table 9) that could bind to miR-141 and target Luc (luciferase) was used as a control. […] Then, proteins were extracted from the Hela-141 cells and quantitatively analyzed for Mcl-1 protein level by western blotting. […]
(In western blotting, separated proteins are transferred to a membrane and probed.)

Series [6] deals with Bcl-xL. Description: Western blot of Bcl-xL protein. Conditions: MDA-MB-453. On the procedure: as §4
The cells transfected with the selected miRNA triggers were measured for protein expression levels of the target Bcl-xL and the apoptotic marker cleaved PARP through western blotting, and the results are depicted in FIG. 32b. […]

Series [7] relates to BCL-xL mRNA. Description: bcl-xL mRNA expression / gene regulation efficiency. The note with it: MDA-MB-453. On the procedure:
In the same manner as in Reference Example 4, miRNA triggers were transfected into cells. After 48 hours, total RNA was extracted using TRIzol (Thermo Fisher Scientific) according to the manufacturer's instruction. The purified RNA was treated with DNase I and then reverse transcribed in the presence of RevertAid reverse transcriptase (Thermo Fisher Scientific), with random hexamers (Thermo Fisher Scientific) serving as primers. For use in amplification of target genes, primers for target genes were added, together with the cDNA, to the SYBR Green PCR master mix (Thermo Fisher Scientific). RT-qPCR was conducted on a StepOnePlus real-time PCR system. Cq values obtained from this analysis was quantitatively analyzed based on the 2^−ΔΔC(t) method.
as §2
After treatment with miRNA triggers, mRNA expression levels of the target gene BCL-xL were measured. […]

Series [8] concerns MOLM-14, MV4-11 and Hela cells. Put plainly: Fluorescence (IVIS 100) of cells transfected with Cy5.5-labeled trigger. Conditions: Lipofectamine. On the procedure:
With the aid of Lipofectamine, the linear miRNA trigger (5′-Cy5.5-miR-155-miR-155-PKR-3′) was transfected into the FLT3-ITD mutant AML cell lines MOLM-14 and MV4-11 and the solid cancer cell line Hela. […] Subsequent animal tests were performed with the trigger.

Regarding “MCL-1-222-222: linear miRNA trigger which utilizes miR-222 to regulate MCL-1 gene; SEQ ID NO 109 (ACCCAGUAGCCAGAUGUAGCUACCCAGUAGCCAGAUGUAGCUCCGAACUACGUAGC; all 2'-O-methyl, backbone not given here)”, the apoptosis entry in series [1] (120 nM (total)) is on record as “no apoptosis was observed”; in series [2] (120 nM (total)), “did not induce apoptosis”.
For “MCL-1-let7f-let7f: linear miRNA trigger designed to knock down MCL-1 by using miR-let7f; SEQ ID NO 113 (AACUAUACAAUGAACUACCUCAAACUAUACAAUGAACUACCUCACCGAACUACGUAGC; all 2'-O-methyl, backbone not given here)”, the apoptosis entry in series [1] (Examples 12-13) and in series [2] (Example 13) was “none of the two cell lines were induced to undergo apoptosis” in each case.
Turning to “Mcl-1-141-141: linear miRNA trigger binding miR-141 and targeting mcl-1; SEQ ID NO 65 (Table 25: 110) (CCAUCUUUACCUCACAGUGUUACCAUCUUUACCUCACAGUGUUACCGAACUACGUAGC; all 2'-O-methyl, backbone not given here)”, the apoptosis induced result in series [3] is given as “up to 40%”. Besides, the “apoptosis / cell viability” value in series [4] is reported as “no significant influence on cell viability”. Also, the Mcl-1 protein level entry in series [5] is “significantly decreased in Mcl-1 protein level”.
With “bcl-xL(2)_222_222: linear miRNA trigger binding miR-222 and knocking down bcl-xL; SEQ ID NO 107 (ACCCAGUAGCCAGAUGUAGCUACCCAGUAGCCAGAUGUAGCUUACCUGCCAGCCUCCUU; all 2'-O-methyl, backbone not given here)”, in series [2], the cell viability result is on record as “did not significantly change”. Besides, the “protein expression level of target bcl-xL” value in series [6] is “did not significantly change”. Moreover, the “mRNA expression level of target bcl-xL” value in series [7] is recorded as “did not significantly change”.

B1: bcl-xL(1)_222_222: linear miRNA trigger binding miR-222 and knocking down bcl-xL; SEQ ID NO 106 (nucleic acid)
chain: ACCCAGUAGCCAGAUGUAGCUACCCAGUAGCCAGAUGUAGCUUCUCCUUCCUGCCCUUCCU
modifications: all 2'-O-methyl, backbone not given here
With B1, the cell viability entry in series [2] was “did not significantly change”. Further, in series [6], the “protein expression level of target bcl-xL” value is recorded as “did not significantly change”. Besides, in series [7], the “mRNA expression level of target bcl-xL” value is listed as “did not significantly change”.

B2: 5′-Cy5.5-miR-155-miR-155-PKR-3′: linear miRNA trigger binding miR-155, targeting PKR, labeled with Cy5.5 fluorophore; SEQ ID NO 69 (conjugate)
chain: UUAUGUUUCAGGUUCAGGGGGAUUAUGUUUCCAGGUUCAGGGGGAUAUGUGAGGCAGAGAACGA
modifications: all 2'-O-methyl, 5' {Cy5.5}, backbone not given here
Regarding B2, the “Cy5.5 fluorescence of transfected cells” value in series [8] was “Fluorescence was detected”.
